We go through one compound from article PMC9997068, “Impact of Gastric pH Variations on the Release of Amorphous Solid Dispersion Formulations Containing a Weakly Basic Drug and Enteric Polymers” (Molecular Pharmaceutics, 2023).

A short description of this series: Drug crystallization in media of different pH (PXRD). The format is physicochemical. The procedure:
PXRD was used to confirm the amorphous state of freshly prepared DLM ASDs and to detect drug crystallization in solution. […] Crystallization of the DLM salt was evaluated at predetermined time points. Drug crystallization in ASDs upon acidic incubation was conducted at the same drug concentration as in the dissolution testing: 20 mg of ASD powder was added to 50 mL of acidic solutions at pH 1.6, 3.0, or 5.0 and kept stirring at 300 rpm, 37 °C for 1 h.
Undissolved particles were collected by vacuum filtration and analyzed using a Rigaku Smartlab diffractometer (Rigaku Americas, The Woodlands, TX) equipped with a Cu–Kα radiation source and a D/tex ultradetector. Diffractograms were acquired with a scanning speed of 4°/min (4–40° 2θ) and 0.02° step size. The voltage and current were 40 kV and 44 mA, respectively.

Structures are written as SMILES. Some results are limits rather than exact numbers.

With `C[C@]1(COc2ccc(N3CCC(Oc4ccc(OC(F)(F)F)cc4)CC3)cc2)Cn2cc([N+](=O)[O-])nc2O1.O=S(=O)(O)CCS(=O)(=O)O` [DLM edisylate], the pHmax (crystallization to the free base observed at all pHs investigated) is < 1.6. The “immersion time at which evidence of crystalline free base was seen” value (neat amorphous salt in suspension, 37 °C) came out at 5 min. In addition, the “crystallization of neat amorphous salt” value (pH 1.6 and 3.0) is “rapid”. Besides, the “rate of crystallization of neat amorphous salt” value (pH 5.0 and 6.5) was “much reduced”.
